Data as given in PMC7279216, “Identification of Inhibitors to Trypanosoma cruzi Sirtuins Based on Compounds Developed to Human Enzymes” (International Journal of Molecular Sciences, 2020).
Read-outs that look alike come from different tables or passages of the source.

How the values were obtained:
T. cruzi Y H10 strain [1] = experiment: High content assay (HCA), T. cruzi in vitro infection of U2OS cells; type: cell-based, Trypanosoma cruzi; conditions: for EC50: read-out: EC50 Value (reduces 50% of infected cells number); for SI (selectivity index = CC50/EC50): U2OS CC50 / T. cruzi EC50
[2] = Host cell cytotoxicity in high content assay; conditions: human
SIRT2 = tested on: SIRT2; set-up: method as in ref 22, 27 and unpublished results; conditions: 27 and unpublished results, cited from earlier work; for IC50: read-out: IC50 against human SIRT2
TcSir2rp3 = TcSir2rp3 (Trypanosoma cruzi, UniProt Q4E5B9); experiment: biochemical; conditions: for inhibition at 5 µM: read-out: % of inhibition of TcSir2rp3 deacetylase activity
SIRT1 = tested on: SIRT1; set-up: method as in ref 22, 27 and unpublished results; conditions: 27 and unpublished results, cited from earlier work; for IC50: read-out: IC50 against human SIRT1
T. cruzi Y H10 strain [3] = experiment: Combinatory high content assay of SIRTi with BZN, T. cruzi in vitro infection; type: cell-based, Trypanosoma cruzi; conditions: for combinatory effect with benznidazole, overall: combination with BZN; for trypanocidal activity of SIRTi+BZN compared to BZN alone / trypanocidal activity of SIRTi+BZN compared to SIRTi alone: combination with BZN at constant EC50 ratios
TcSir2rp1 = TcSir2rp1 (Trypanosoma cruzi, UniProt Q4DP02); experiment: biochemical; type: biochemical; conditions: for inhibition of TcSir2rp1 deacetylase activity: 5 µM
SIRT5 = tested on: SIRT5; set-up: method as in ref 27 and unpublished results; conditions: ref 27 and unpublished results; cited from earlier work
[4] = U2OS cells infected with T. cruzi Y H10 trypomastigotes
[5] = Trypanosoma cruzi, U2OS, 96 h, U2OS cells infected with T. cruzi, 96 hours incubation
[6] = Ratio 1, EC50 ratio 1/32 (BZN 0.8 µM)
[7] = Ratio 2, EC50 ratio 1/16 (BZN 1.5 µM)
[8] = Ratio 3, EC50 ratio 1/8 (BZN 3 µM)
[9] = Ratio 4, EC50 ratio 1/4 (BZN 6 µM)
[10] = Ratio 5, EC50 ratio 1/2 (BZN 12 µM)
[11] = Ratio 6, EC50 ratio 1 (BZN 24 µM)
[12] = Ratio 7, EC50 ratio 2 (BZN 48 µM)

Sequence of TcSir2rp1 (Q4DP02 entry or part of it): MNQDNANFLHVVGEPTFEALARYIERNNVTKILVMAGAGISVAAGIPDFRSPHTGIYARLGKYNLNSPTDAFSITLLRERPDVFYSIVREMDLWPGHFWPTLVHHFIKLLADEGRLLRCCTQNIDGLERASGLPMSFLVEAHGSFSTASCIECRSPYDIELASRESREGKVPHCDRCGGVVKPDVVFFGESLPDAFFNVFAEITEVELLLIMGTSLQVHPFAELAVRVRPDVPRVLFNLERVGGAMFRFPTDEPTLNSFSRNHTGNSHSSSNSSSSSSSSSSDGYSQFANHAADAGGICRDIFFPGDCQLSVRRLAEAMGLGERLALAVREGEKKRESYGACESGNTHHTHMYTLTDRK
Sequence of TcSir2rp3 (Q4E5B9 entry or part of it): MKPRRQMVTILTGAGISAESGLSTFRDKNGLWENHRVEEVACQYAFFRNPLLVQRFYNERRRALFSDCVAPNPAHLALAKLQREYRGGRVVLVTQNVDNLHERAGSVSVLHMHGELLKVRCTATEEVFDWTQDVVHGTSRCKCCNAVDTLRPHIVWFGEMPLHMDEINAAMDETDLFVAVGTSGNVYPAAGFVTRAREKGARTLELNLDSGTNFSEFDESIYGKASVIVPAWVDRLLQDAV

Row | SMILES | EC50 (T. cruzi Y H10 strain [1]; Trypanosoma cruzi, U2OS, 96 h) [µM] | SI (selectivity index = CC50/EC50) (T. cruzi Y H10 strain [1]) | CC50 at 96 h [2, 4] [µM] | IC50 (SIRT2) [µM] | EC50 (T. cruzi Y H10 strain [1]; [5]) [µM] | inhibition at 5 µM (TcSir2rp3) [%] | IC50 (TcSir2rp3; read-out: TcSir2rp3 IC50 ± SD) [µM] | IC50 (SIRT1) [µM] | IC50 against human SIRT2 (SIRT2) | combinatory effect with benznidazole, overall (T. cruzi Y H10 strain [3]) | trypanocidal activity of SIRTi+BZN compared to BZN alone (T. cruzi Y H10 strain [3]) | inhibition of TcSir2rp1 deacetylase activity (TcSir2rp1) | also measured
1 | O=C(Cn1ccnc1[N+](=O)[O-])NCc1ccccc1 [BZN, benznidazole, reference compound] | 1.96 | > 102 | > 200 | – | – | – | – | – | – | – | – | – | –
2 | CC(CSc1cccc(/N=C/c2c(O)ccc3ccccc23)c1)c1ccccc1 (stereo not shown) [Compound 8] | – | 1.89 | 76.8 | ~20 | 40.6 | > 30 | 18.8 ± 5.34 | ~40 | – | – | – | – | –
3 | O=c1[nH]c(SCc2ccc3ccccc3c2)nc(-c2ccccc2)c1Cc1c(O)ccc2ccccc12 [Compound 12] | – | 1.38 | 48.8 | 6.3 | 35.4 | > 30 | 14.3 ± 6.06 | > 150 | single-digit micromolar | low or no synergism | no difference | – | type of interaction with BZN (T. cruzi Y H10 strain [3]; 1/4 ratio): synergistic effect; CI (combinatory index) with BZN (T. cruzi Y H10 strain [3]; [6]): 6.6; CI (combinatory index) with BZN (T. cruzi Y H10 strain [3]; [7]): 13.2; CI (combinatory index) with BZN (T. cruzi Y H10 strain [3]; [8]): 1.02; CI (combinatory index) with BZN (T. cruzi Y H10 strain [3]; [9]): 0.82; CI (combinatory index) with BZN (T. cruzi Y H10 strain [3]; [10]): 1.14; CI (combinatory index) with BZN (T. cruzi Y H10 strain [3]; [11]): 1.48; CI (combinatory index) with BZN (T. cruzi Y H10 strain [3]; [12]): 2.29; type of interaction with BZN (T. cruzi Y H10 strain [3]; ratios 1/8, 1/2 and 1/1): additive effect; type of interaction with BZN (T. cruzi Y H10 strain [3]; ratios lower than 1/8): antagonistic effect
4 | O=C(CSc1nc(-c2ccccc2)c(Cc2c(O)ccc3ccccc23)c(=O)[nH]1)c1ccccc1 [Compound 13] | – | > 2.2 | > 100 | – | 45.1 | > 30 | 18.5 ± 1.97 | > 150 | single-digit micromolar | – | – | – | –
5 | CCCCCSc1nc(-c2ccccc2)c(Cc2c(O)ccc3ccccc23)c(=O)[nH]1 [Compound 15] | – | 1.89 | 36.4 | – | 19.4 | – | – | > 150 | single-digit micromolar | – | – | inhibited TcSir2rp1 activity | IC50 (TcSir2rp1): 32.4 ± 7.88 µM; EC50 (T. cruzi Y H10 strain [1]; U2OS cells infected with T. cruzi, 96 hours incubation): 19.4 µM
6 | O=c1[nH]c(N/N=C/c2ccc([N+](=O)[O-])cc2)nc(-c2ccccc2)c1Cc1c(O)ccc2ccccc12 [Compound 17] | – | 2.31 | 19.6 | ~50 | 8.5 | – | – | ~50 | – | synergistic effects | no increase in trypanocidal activity | inhibited TcSir2rp1 activity | IC50 (TcSir2rp1): 25.5 ± 4.73 µM; CI (combinatory index) with BZN (T. cruzi Y H10 strain [3]; [6]): 0.38; CI (combinatory index) with BZN (T. cruzi Y H10 strain [3]; [7]): 0.69; CI (combinatory index) with BZN (T. cruzi Y H10 strain [3]; [8]): 0.73; CI (combinatory index) with BZN (T. cruzi Y H10 strain [3]; [9]): 0.74; CI (combinatory index) with BZN (T. cruzi Y H10 strain [3]; [10]): 1.25; CI (combinatory index) with BZN (T. cruzi Y H10 strain [3]; [11]): 2.45; CI (combinatory index) with BZN (T. cruzi Y H10 strain [3]; [12]): 3.52; trypanocidal activity of SIRTi+BZN compared to SIRTi alone (T. cruzi Y H10 strain [3]): increase in the trypanocidal activity; type of interaction with BZN (T. cruzi Y H10 strain [3]; ratios 1/2, 1, and 2): antagonistic effect; type of interaction with BZN (T. cruzi Y H10 strain [3]; ratios lower than 1/4): tendency towards a synergistic effect
7 | CCOC(=O)/C(=C\c1cc(C(=O)c2ccccc2OC)c[nH]1)C(=O)Nc1cccc2ncccc12 [Compound 27] | – | 8.18 | 46.9 | 10.5 | 5.73 | – | – | – | – | – | – | did not show potent inhibitory effect | % of inhibition of TcSir2rp3 deacetylase activity (TcSir2rp3; 5 µM): did not show potent inhibitory effect
8 | CCN1C(=O)/C(=C\c2ccc(-c3ccc(Cl)c(Cl)c3)o2)C(=O)NC1=S [Compound 30] | 42.7 | – | – | – | – | > 30 | – | – | single-digit micromolar | – | – | – | IC50 against human SIRT5 (SIRT5): single-digit micromolar; CC50 at 96 h [2]: > 100 µM; IC50 against human SIRT1 (SIRT1): single-digit micromolar
9 | CCCN1C(=O)/C(=C\c2ccc(-c3ccc(Cl)c(Cl)c3)o2)C(=O)NC1=S [Compound 31] | – | – | – | – | – | – | – | – | – | – | – | – | IC50 (TcSir2rp3): 16.3 ± 9.54 µM
10 | C=CCN1C(=O)/C(=C\c2ccc(-c3ccc(Cl)c(Cl)c3)o2)C(=O)NC1=S [Compound 32] | 39.8 | – | – | – | – | > 30 | – | – | single-digit micromolar | synergistic effects | not if compared to BZN alone | – | IC50 against human SIRT5 (SIRT5): single-digit micromolar; IC50 (TcSir2rp3): 16.4 ± 6.7 µM; CC50 at 96 h [2]: 77 µM; type of interaction with BZN (T. cruzi Y H10 strain [3]; all concentration ratios lower than 1/2): synergistic effect; trypanocidal activity of SIRTi+BZN compared to SIRTi alone (T. cruzi Y H10 strain [3]): increased the trypanocidal activity; IC50 against human SIRT1 (SIRT1): single-digit micromolar
